Columns and labels:
MDR1 (ABCB1, P-gp) = MDR1 (ABCB1, P-gp) (Homo sapiens, UniProt P08183); test: Substrate activity at human MDR1 expressed in LLC-PK1 cells assessed as efflux ratio of permeability from basolateral to apical side over apical to basolateral side at 10 uM measured after 2 hrs by LC/MS/MS analysis; type: ADME, cell-based
CYP2D6 = CYP2D6 (Homo sapiens, UniProt P10635); test: Inhibition of CYP2D6 (unknown origin) expressed in insect cells assessed as reduction in 1'-hydroxybufuralol formation using bufuralol as substrate at 10 uM incubated for 60 mins by LC/MS/MS analysis; type: ADME; conditions: recombinant CYP2D6 expressed in insect cells, probe bufuralol
Chain of CYP2D6 (P10635 whole entry): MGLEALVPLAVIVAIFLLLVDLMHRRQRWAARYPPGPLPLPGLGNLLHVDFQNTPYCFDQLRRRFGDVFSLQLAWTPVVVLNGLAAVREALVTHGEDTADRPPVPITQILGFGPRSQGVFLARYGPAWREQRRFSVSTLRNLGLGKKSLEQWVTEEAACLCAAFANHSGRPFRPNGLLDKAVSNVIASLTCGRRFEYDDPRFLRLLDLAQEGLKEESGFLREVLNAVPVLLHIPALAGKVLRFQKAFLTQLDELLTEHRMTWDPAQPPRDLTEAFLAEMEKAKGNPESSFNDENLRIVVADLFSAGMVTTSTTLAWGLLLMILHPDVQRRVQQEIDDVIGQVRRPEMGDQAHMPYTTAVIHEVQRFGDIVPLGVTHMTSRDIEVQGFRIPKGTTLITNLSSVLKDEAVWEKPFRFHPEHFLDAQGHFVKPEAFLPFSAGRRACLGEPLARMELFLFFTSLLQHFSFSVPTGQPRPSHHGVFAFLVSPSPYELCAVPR

[1] = target: Sodium-dependent dopamine transporter (Homo sapiens, UniProt Q01959); test: Inhibition of human DAT expressed in CHO-K1 cells assessed as inhibition of [3H]-dopamine reuptake measured after 60 mins by Microscintillation counting analysis; type: cell-based
Chain of Sodium-dependent dopamine transporter (Q01959 whole entry): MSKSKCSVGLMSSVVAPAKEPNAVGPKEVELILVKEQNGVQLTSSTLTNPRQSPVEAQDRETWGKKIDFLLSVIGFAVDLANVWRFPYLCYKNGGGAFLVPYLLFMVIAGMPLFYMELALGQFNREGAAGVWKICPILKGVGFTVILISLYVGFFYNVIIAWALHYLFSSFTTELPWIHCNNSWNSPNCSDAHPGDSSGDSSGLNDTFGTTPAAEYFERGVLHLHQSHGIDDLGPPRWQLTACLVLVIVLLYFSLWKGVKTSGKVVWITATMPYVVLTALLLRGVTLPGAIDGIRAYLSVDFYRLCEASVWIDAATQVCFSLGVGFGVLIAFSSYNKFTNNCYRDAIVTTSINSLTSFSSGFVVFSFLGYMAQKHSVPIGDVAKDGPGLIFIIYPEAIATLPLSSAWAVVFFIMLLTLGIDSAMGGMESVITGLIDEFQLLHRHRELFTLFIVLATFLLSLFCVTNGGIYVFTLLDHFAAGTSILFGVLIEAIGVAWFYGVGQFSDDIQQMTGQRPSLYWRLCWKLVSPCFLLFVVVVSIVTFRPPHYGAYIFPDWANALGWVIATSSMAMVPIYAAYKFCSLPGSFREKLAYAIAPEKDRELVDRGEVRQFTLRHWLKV

[2] = target: Sodium-dependent noradrenaline transporter (Homo sapiens, UniProt P23975); test: Inhibition of human NET expressed in CHO-K1 cells assessed as inhibition of [3H]-norepinephrine reuptake measured after 45 mins by Microscintillation counting analysis; type: cell-based
Chain of Sodium-dependent noradrenaline transporter (P23975 whole entry): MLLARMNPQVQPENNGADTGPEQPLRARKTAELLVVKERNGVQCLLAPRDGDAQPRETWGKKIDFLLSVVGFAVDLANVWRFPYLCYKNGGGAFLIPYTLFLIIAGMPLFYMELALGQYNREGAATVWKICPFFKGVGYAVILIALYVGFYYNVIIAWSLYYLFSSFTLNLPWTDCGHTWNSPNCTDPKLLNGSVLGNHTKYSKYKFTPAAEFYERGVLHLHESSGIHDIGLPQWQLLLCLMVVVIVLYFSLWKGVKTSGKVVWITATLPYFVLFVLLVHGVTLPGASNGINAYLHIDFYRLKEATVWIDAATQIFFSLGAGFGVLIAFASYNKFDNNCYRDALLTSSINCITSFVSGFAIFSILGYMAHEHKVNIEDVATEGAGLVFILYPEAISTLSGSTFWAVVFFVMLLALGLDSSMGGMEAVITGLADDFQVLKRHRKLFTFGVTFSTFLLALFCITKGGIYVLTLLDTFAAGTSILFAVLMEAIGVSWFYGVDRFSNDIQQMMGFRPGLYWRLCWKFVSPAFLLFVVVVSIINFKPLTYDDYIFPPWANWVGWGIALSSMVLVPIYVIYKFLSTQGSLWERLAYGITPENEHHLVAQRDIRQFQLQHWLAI

[3] = target: Sodium-dependent serotonin transporter (Homo sapiens, UniProt P31645); test: Inhibition of human SERT expressed in CHO-K1 cells assessed as inhibition of [3H]-5-hydroxytryptamine reuptake measured after 20 mins by Microscintillation counting analysis; type: cell-based
Chain of Sodium-dependent serotonin transporter (P31645 whole entry): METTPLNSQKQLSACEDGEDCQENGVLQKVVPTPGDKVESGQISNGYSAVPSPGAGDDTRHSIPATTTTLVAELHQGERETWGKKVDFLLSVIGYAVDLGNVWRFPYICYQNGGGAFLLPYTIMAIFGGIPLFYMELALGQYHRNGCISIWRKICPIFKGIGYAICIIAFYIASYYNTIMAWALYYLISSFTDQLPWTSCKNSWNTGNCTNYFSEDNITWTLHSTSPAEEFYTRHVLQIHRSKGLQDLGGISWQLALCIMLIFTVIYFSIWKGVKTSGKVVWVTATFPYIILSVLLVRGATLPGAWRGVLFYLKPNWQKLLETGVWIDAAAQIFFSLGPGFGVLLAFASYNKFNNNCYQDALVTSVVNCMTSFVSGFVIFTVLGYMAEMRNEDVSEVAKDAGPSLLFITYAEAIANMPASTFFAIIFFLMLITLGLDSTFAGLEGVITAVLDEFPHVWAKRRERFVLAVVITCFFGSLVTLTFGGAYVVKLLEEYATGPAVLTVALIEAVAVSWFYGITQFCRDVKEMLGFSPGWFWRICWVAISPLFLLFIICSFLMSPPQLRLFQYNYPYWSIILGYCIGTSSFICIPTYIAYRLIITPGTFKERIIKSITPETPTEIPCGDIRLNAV

[4] = Permeability coefficient of the compound at 10 uM at pH 7.4 measured after 3 hrs by PAMPA based LC/MS/MS analysis; type: ADME; design: unit not given here; conditions: pH 7.4, 3 h
Cytochrome P450 2D6 [5] = target: T1, Cytochrome P450 2D6 (Homo sapiens, UniProt P10635); test: Drug metabolism in human hepatocytes assessed as CYP2D6-mediated N-(((6S,7R)-7-(4-chloro-3-fluorophenyl)-1,4-oxazepan-6-yl)methyl)-2-hydroxyacetamide formation at 10 uM incubated for 6 hrs by LC/MS/MS anlaysis; type: ADME, cell-based, Hepatocyte
T1 sequence (P10635 whole entry): as the sequence (P10635 whole entry) above

Cytochrome P450 2D6 [6] = target: T1, Cytochrome P450 2D6; test: Drug metabolism assessed as CYP2D6 (unknown origin) expressed in microsomes-mediated metabolism by measuring metabolic rate at 1 uM incubated for 10 mins by UPLC analysis; type: ADME, Microsome
Cytochrome P450 2C19 = Cytochrome P450 2C19 (Homo sapiens, UniProt P33261); test: Drug metabolism assessed as CYP2C19 (unknown origin) expressed in microsomes-mediated metabolism by measuring metabolic rate at 1 uM incubated for 10 mins by UPLC analysis; type: ADME, Microsome
Chain of Cytochrome P450 2C19 (P33261 whole entry): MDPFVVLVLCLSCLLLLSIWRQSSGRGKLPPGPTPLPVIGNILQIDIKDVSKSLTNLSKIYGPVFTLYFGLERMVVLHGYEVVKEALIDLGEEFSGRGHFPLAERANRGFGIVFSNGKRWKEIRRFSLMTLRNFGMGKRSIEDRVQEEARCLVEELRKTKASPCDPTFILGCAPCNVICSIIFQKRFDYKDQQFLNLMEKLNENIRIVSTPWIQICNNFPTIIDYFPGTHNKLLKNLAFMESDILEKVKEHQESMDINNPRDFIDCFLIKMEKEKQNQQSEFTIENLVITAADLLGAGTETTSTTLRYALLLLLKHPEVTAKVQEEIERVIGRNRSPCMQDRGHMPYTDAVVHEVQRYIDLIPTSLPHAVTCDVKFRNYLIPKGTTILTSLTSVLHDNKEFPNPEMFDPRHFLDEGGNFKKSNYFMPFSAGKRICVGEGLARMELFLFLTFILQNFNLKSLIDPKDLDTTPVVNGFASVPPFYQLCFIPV

Rattus norvegicus = test: Anti-SUI activity in po dosed rat assessed as induction of urethral resistance by measuring increase in leak point pressure measured after 15 to 240 mins; type: functional, organism-based; conditions: dose 1-10 mg/kg, time 15-240 min, tested as the 2H-labelled form
Cytochrome P450 3A4 = Cytochrome P450 3A4 (Homo sapiens, UniProt P08684); test: Drug metabolism assessed as CYP3A4 (unknown origin) expressed in microsomes-mediated metabolism by measuring metabolic rate at 1 uM incubated for 10 mins by UPLC analysis; type: ADME, Microsome
Chain of Cytochrome P450 3A4 (P08684 whole entry): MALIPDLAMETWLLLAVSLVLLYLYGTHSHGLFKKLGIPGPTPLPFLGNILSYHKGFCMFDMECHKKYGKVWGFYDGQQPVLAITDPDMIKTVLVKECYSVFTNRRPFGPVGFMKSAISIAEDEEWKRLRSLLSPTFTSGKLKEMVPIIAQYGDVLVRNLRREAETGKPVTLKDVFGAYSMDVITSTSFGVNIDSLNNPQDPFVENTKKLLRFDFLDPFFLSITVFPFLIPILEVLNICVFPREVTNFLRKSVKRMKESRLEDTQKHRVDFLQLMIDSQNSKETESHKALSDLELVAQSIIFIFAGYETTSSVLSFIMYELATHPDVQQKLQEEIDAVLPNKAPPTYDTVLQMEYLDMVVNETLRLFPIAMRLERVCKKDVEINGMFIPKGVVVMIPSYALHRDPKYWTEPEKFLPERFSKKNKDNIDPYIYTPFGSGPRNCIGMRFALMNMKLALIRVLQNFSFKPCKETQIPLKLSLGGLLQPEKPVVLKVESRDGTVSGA

[7] = Drug metabolism assessed as CYP2B6/CYP2C9/CYP2E1/CYP2C8/CYP1A2 (unknown origin) expressed in microsomes-mediated metabolism by measuring metabolic rate at 1 uM incubated for 10 mins by UPLC analysis; type: ADME, Microsome; conditions: human
Cytochrome P450 2D6 [8] = target: T1, Cytochrome P450 2D6; test: Drug metabolism assessed as CYP2D6 (unknown origin)-expressed in microsomes mediated N-(((6S,7R)-7-(4-chloro-3-fluorophenyl)-1,4-oxazepan-6-yl)methyl)-2-hydroxyacetamide formation at 1 uM incubated for 10 mins by UPLC anlaysis; type: ADME, Microsome
hERG (KCNH2) = hERG (KCNH2) (Homo sapiens, UniProt Q12809); test: Inhibition of human ERG at 10 uM
[9] = Ex vivo receptor occupancy at NET in Sprague-Dawley rat left brain cortex assessed as [3H]nisoxetine labelling at 3 mg/kg, iv measured after 20 mins by scintillation counting analysis; type: functional
[10] = Oral bioavailability in Crl:CD(SD)(IGS) rat at 1 mg/kg measured after 8 hrs by LC/MS/MS analysis; type: ADME, organism-based; conditions: in vivo

Chain of MDR1 (ABCB1, P-gp) (P08183 whole entry): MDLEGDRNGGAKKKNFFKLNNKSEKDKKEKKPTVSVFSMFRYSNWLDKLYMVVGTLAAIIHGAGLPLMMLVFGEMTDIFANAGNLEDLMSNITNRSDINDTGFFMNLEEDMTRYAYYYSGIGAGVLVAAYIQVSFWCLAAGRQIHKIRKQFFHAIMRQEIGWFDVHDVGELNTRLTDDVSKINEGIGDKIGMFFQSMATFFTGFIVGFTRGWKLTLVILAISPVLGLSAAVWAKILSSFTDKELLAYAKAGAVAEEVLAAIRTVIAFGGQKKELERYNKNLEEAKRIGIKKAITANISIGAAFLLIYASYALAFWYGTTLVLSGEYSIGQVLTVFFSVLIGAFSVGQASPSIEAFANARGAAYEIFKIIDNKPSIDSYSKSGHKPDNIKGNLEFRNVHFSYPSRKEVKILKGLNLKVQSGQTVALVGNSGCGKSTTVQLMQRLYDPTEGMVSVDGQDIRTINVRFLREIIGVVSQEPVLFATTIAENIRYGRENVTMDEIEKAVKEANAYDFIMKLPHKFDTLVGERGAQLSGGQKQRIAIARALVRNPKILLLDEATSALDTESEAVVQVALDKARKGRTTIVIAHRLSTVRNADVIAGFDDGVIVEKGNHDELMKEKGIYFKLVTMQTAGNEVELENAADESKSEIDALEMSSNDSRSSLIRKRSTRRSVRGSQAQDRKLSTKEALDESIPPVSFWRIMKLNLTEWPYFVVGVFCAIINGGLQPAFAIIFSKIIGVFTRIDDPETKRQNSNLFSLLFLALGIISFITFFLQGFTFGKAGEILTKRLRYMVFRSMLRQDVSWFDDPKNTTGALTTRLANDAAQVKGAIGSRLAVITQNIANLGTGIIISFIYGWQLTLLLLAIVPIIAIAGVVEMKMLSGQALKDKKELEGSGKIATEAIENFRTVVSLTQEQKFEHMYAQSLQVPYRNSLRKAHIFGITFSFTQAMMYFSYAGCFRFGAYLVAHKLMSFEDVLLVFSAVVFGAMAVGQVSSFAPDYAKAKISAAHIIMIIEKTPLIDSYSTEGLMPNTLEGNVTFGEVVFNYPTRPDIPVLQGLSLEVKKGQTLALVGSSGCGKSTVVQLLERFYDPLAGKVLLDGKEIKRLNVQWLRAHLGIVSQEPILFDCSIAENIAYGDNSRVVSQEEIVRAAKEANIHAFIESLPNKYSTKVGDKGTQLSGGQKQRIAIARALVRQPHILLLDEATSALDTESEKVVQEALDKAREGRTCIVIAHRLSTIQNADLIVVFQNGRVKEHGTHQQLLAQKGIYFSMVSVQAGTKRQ

| efflux ratio at 2 h, 10 µM (MDR1 (ABCB1, P-gp)) | inhibition at 1 h, 10 µM (CYP2D6) | IC50 [1] | IC50 [2] | IC50 [3] | Pe [4] | Drug metabolism (Cytochrome P450 2D6 [5]) | Drug metabolism (Cytochrome P450 2D6 [6]) | Drug metabolism (Cytochrome P450 2C19) | Drug metabolism (Cytochrome P450 3A4) | Drug metabolism [7] | Drug metabolism (Cytochrome P450 2D6 [8]) | bioavailability [10] | Structure (SMILES) | Activity (Rattus norvegicus) | inhibition at 10 µM (hERG (KCNH2)) | Occ [9] |
| --- | --- | --- | --- | --- | --- | --- | --- | --- | --- | --- | --- | --- | --- | --- | --- | --- |
| 2.4 | 42% | > 1000 nM | 21 nM | 520 nM | – | – | – | – | – | – | – | – | COC(C)(C)C(=O)NC[C@@H]1CNCCO[C@H]1c1ccc(Cl)c(F)c1.Cl | – | – | – |
| 3.5 | 80% | > 1000 nM | 5.3 nM | 200 nM | – | – | – | – | – | – | – | – | Cl.O=C(NC[C@@H]1CNCCO[C@H]1c1ccc(Cl)c(F)c1)C1CCCO1 (some centres not stated) | – | – | – |
| 3.6 | 66% | > 1000 nM | 2.6 nM | 540 nM | – | – | – | – | – | – | – | – | Cl.O=C(NC[C@@H]1CNCCO[C@H]1c1ccc(Cl)c(F)c1)C1COCCO1 (some centres not stated) | – | – | – |
| 2.1 | 48% | > 1000 nM | 3.2 nM | 440 nM | 221 | Metabolite_Detected | 0.081 %/min/pmol | 0.016 %/min/pmol | 0 %/min/pmol | 0 %/min/pmol | Metabolite_Detected | – | COCC(=O)NC[C@@H]1CNCCO[C@H]1c1ccc(Cl)c(F)c1.Cl | Dose-dependent effect | – | – |
| 12 | 44% | > 1000 nM | 3.9 nM | 890 nM | 151 | – | – | – | – | – | – | – | COCCC(=O)NC[C@@H]1CNCCO[C@H]1c1ccc(Cl)c(F)c1.Cl | – | – | – |
| 3 | 62% | > 1000 nM | 2.6 nM | 62 nM | 260 | – | – | – | – | – | – | – | CCCC(=O)NC[C@@H]1CNCCO[C@H]1c1ccc(Cl)c(Cl)c1.Cl | – | – | – |
| 4.8 | 41% | > 1000 nM | 1.5 nM | 120 nM | 207 | – | – | – | – | – | – | – | CCC(=O)NC[C@@H]1CNCCO[C@H]1c1ccc(Cl)c(Cl)c1.Cl | – | – | – |
| 1.4 | 79% | > 1000 nM | 3.3 nM | 220 nM | – | – | 0.365 %/min/pmol | 0.005 %/min/pmol | 0.026 %/min/pmol | 0 %/min/pmol | – | – | CCOCC(=O)NC[C@@H]1CNCCO[C@H]1c1ccc(Cl)c(F)c1.Cl | – | – | – |
| 1.7 | 66% | > 1000 nM | 4.8 nM | 390 nM | – | – | 0.37 %/min/pmol | 0.017 %/min/pmol | 0.064 %/min/pmol | 0 %/min/pmol | – | – | CC(C)OCC(=O)NC[C@@H]1CNCCO[C@H]1c1ccc(Cl)c(F)c1.Cl | – | – | – |
| 1.9 | 33% | > 1000 nM | 8.8 nM | 800 nM | – | – | – | – | – | – | – | – | COC(C)C(=O)NC[C@@H]1CNCCO[C@H]1c1ccc(Cl)c(F)c1.Cl (some centres not stated) | – | – | – |
| 5 | 26% | > 1000 nM | – | – | 146 | – | – | – | – | – | – | – | CC(=O)NC[C@@H]1CNCCO[C@H]1c1ccc(Cl)c(Cl)c1.Cl | – | – | – |
| 2.1 | 49% | > 1000 nM | 3.3 nM | 680 nM | – | Metabolite_Detected | 0.035 %/min/pmol | 0.012 %/min/pmol | 0.015 %/min/pmol | 0.008 %/min/pmol | – | 68% | Cl.[2H]C([2H])([2H])OCC(=O)NC[C@@H]1CNCCO[C@H]1c1ccc(Cl)c(F)c1 | – | 17% | 3.8% |
| 2.1 | 70% | 1600 nM | 1.2 nM | 70 nM | 279 | – | – | – | – | – | – | – | COCC(=O)NC[C@@H]1CNCCO[C@H]1c1ccc(Cl)c(Cl)c1.Cl | – | – | – |

From ChEMBL document CHEMBL4715727, “Design, synthesis, and biological evaluation of a novel series of peripheral-selective noradrenaline reuptake inhibitors-Part 2” (Bioorg Med Chem, 2016)
